pIC50, pKd: −log10 of the molar value. Where two headings read alike, the source gives them in different places.
Tests used:
[1] = molecular target: human RORγt ligand binding domain (RORγt LBD) (Homo sapiens (Human), UniProt P51449); assay: RORγt ThermoFluor® assay (thermal shift binding)
Procedure, shortened: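 Thermal shift with 0.065 mg/mL RORγt LBD and 60 μM 1,8-ANS in 100 mM Hepes pH 7.0, 10 mM NaCl, 2.5 mM GSH, 0.002% Tween-20.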

full-length human RORγt = full-length human RORγt (Homo sapiens (Human), UniProt P51449); assay: RORγt (full-length human) reporter assay, conditions A or B, HEK293T cells; assay type: cell-based; conditions: for inhibition at 3 µM / inhibition at 0.67 µM / inhibition at 6 µM / inhibition at 2 µM / inhibition at […]: HEK-293T; for inhibition at 3 µM: 3 μM compound concentration (footnote *); for inhibition at 3 µM / inhibition at 0.67 µM / inhibition at 2 µM / inhibition at […]: read-out: RORγt (FL) Reporter Assay A or B, % inhibition; for pIC50: RORγt (FL) Reporter Assay A or B, IC50, HEK293T cells; for inhibition at 6 µM: read-out: RORγt (FL) Reporter Assay A or B, % inhibition @ 6 μM, 6 μM compound concentration; for inhibition at 2 µM: 2 μM compound concentration
Procedure, shortened: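 After 16–20 h, dual firefly/Renilla luciferase luminescence was read. Firefly signal was normalized to DMSO and saturating reference compound, then to Renilla, and fitted for IC50; % inhibition is versus DMSO.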

[2] = read-out: ThermoFluor® Assay, Kd
[3] = 0.33 μM compound concentration (footnote *****)
[4] = 0.22 μM compound concentration (footnote *******)

human RORγt ligand binding domain (RORγt LBD), sequence (P51449 other isoform, or with tags, fused parts or gaps): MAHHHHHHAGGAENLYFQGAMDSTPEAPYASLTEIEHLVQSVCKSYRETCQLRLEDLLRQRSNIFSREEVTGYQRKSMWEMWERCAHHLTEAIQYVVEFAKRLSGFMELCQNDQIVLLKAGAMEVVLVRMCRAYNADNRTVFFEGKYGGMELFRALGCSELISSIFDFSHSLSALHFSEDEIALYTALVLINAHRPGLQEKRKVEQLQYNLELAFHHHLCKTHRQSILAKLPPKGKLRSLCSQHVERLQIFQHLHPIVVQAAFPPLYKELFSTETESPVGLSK
full-length human RORγt, sequence (P51449 other isoform, or with tags, fused parts or gaps): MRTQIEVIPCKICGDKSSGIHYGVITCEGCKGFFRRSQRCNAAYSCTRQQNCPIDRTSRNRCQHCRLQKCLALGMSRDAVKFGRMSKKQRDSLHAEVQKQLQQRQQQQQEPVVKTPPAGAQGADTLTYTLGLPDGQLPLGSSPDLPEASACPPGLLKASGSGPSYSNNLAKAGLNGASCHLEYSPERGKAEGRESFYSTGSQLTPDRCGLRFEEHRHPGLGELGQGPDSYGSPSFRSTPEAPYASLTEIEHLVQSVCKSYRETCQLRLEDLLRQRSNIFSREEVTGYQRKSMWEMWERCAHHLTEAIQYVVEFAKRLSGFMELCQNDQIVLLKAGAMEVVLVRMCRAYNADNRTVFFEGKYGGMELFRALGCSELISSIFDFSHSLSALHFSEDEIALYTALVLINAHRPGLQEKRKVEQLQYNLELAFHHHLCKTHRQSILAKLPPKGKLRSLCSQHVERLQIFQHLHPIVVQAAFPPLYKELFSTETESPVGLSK

| Compound | pKd ([1]; ThermoFluor® Assay, Kd) | pIC50 (full-length human RORγt) | pKd [1, 2] | also measured |
| --- | --- | --- | --- | --- |
| CCn1nc(C(=O)NC[C@]2(O)CC[C@@H](S(N)(=O)=O)CC2)c(Cl)c1-c1ccc(C[C@H](C)C(F)(F)F)cc1OC(F)F (single isomer, unassigned) [Example 60, 4-Chloro-5-(2-(difluoromethoxy)-4-((S*)-3,3,3-trifluoro-2-methylpropyl)phenyl)-1-ethyl-N-(((1s,4R)-1-hydroxy-4-sulfamoylcyclohexyl)methyl)-1H-pyrazole-3-carboxamide] | 8.72 | 7.42 |  | inhibition at 3 µM (full-length human RORγt): 114% |
| CCn1nc(C(=O)NC[C@H]2CC[C@H](S(C)(=O)=O)CC2)c(C#N)c1-c1ccc(CC(C)(C)C(F)(F)F)cc1OC [Example 127, 4-Cyano-1-ethyl-5-(2-methoxy-4-(3,3,3-trifluoro-2,2-dimethylpropyl)phenyl)-N-(((1r,4r)-4-(methylsulfonyl)cyclohexyl)methyl)-1H-pyrazole-3-carboxamide] |  | 7.70 | 8.43 | inhibition at 0.67 µM (full-length human RORγt; 0.67 μM compound concentration (footnote ****)): 94% |
| CCn1nc(C(=O)NC[C@H]2CC[C@H](S(C)(=O)=O)CC2)c(Cl)c1-c1ccc(OC2CCC(F)(F)CC2)cc1OC [Example 219, 4-Chloro-5-(4-((4,4-difluorocyclohexyl)oxy)-2-methoxyphenyl)-1-ethyl-N-(((1r,4r)-4-(methylsulfonyl)cyclohexyl)methyl)-1H-pyrazole-3-carboxamide] |  | 7.52 | 8.00 | inhibition at 0.67 µM (full-length human RORγt): 98% |
| CCn1nc(C(=O)NC[C@H]2CC[C@@H](S(C)(=O)=O)CO2)c(Cl)c1-c1ccc(N[C@H](C)C(F)(F)F)cc1OC (relative stereo) [Example 17, 4-Chloro-1-ethyl-5-(2-methoxy-4-(((R)-1,1,1-trifluoropropan-2-yl)amino)phenyl)-N-(((2R*,5R*)-5-(methylsulfonyl)tetrahydro-2H-pyran-2-yl)methyl)-1H-pyrazole-3-carboxamide] | 5.89 | 5.66 |  | inhibition at 6 µM (full-length human RORγt): 67% |
| COCCn1nc(C(=O)NC[C@]2(O)CC[C@@H](S(C)(=O)=O)CC2)c(Cl)c1-c1ccc(CC(C)(C)C(F)(F)F)cc1OC(F)F [Example 149, 4-Chloro-5-(2-(difluoromethoxy)-4-(3,3,3-trifluoro-2,2-dimethylpropyl)phenyl)-N-(((1s,4s)-1-hydroxy-4-(methylsulfonyl)cyclohexyl)methyl)-1-(2-methoxyethyl)-1H-pyrazole-3-carboxamide] |  | 8.22 | 9.08 | inhibition at 2 µM (full-length human RORγt): 99% |
| CCn1nc(C(=O)NC[C@H]2CC[C@H](S(N)(=O)=O)CC2)c(Cl)c1-c1ccc(C[C@H](C)C(F)(F)F)cc1OC(F)F (single isomer, unassigned) [Example 54, 4-Chloro-5-(2-(difluoromethoxy)-4-((S*)-3,3,3-trifluoro-2-methylpropyl)phenyl)-1-ethyl-N-(((1r,4S)-4-sulfamoylcyclohexyl)methyl)-1H-pyrazole-3-carboxamide] | 9.16 | 8.01 |  | inhibition at […] (full-length human RORγt; [3]): 102% |
| CCn1nc(C(=O)NC[C@H]2CC[C@H](S(C)(=O)=O)CC2)c(Cl)c1-c1ccc(CC(C)(C)C(F)(F)F)cc1C [Example 182, 4-Chloro-1-ethyl-5-(2-methyl-4-(3,3,3-trifluoro-2,2-dimethylpropyl)phenyl)-N-(((1r,4r)-4-(methylsulfonyl)cyclohexyl)methyl)-1H-pyrazole-3-carboxamide] |  | 7.72 | 9.00 | inhibition at […] (full-length human RORγt; [4]): 81% |
| CCn1nc(C(=O)NC[C@]2(O)CC[C@@H](S(C)(=O)=O)CC2)c(Cl)c1-c1ccc([C@@](C)(O)CC(F)(F)F)cc1OC(F)F (single isomer, unassigned) [Example 99, 4-Chloro-5-(2-(difluoromethoxy)-4-((S*)-4,4,4-trifluoro-2-hydroxybutan-2-yl)phenyl)-1-ethyl-N-(((1s,4R)-1-hydroxy-4-(methylsulfonyl)cyclohexyl)methyl)-1H-pyrazole-3-carboxamide] | 6.64 | 5.59 |  | inhibition at 3 µM (full-length human RORγt): -21% |
| CCn1nc(C(=O)NC[C@]2(C(=O)O)CC[C@H](S(C)(=O)=O)CC2)c(Cl)c1-c1ccc(N[C@H](C)C(F)(F)F)cc1OC (relative stereo) [Example 96, (1r*,4R*)-1-((4-Chloro-1-ethyl-5-(2-methoxy-4-(((R)-1,1,1-trifluoropropan-2-yl)amino)phenyl)-1H-pyrazole-3-carboxamido)methyl)-4-(methylsulfonyl)cyclohexane-1-carboxylic Acid] | 4.60 | < 5.22 |  | inhibition at 6 µM (full-length human RORγt): -10% |
| CCn1nc(C(=O)NC[C@@H]2CC[C@@H](S(C)(=O)=O)CO2)c(Cl)c1-c1ccc(CC(C)(C)C(F)(F)F)cc1OC(F)F (racemic) [Example 14, 4-Chloro-5-(2-(difluoromethoxy)-4-(3,3,3-trifluoro-2,2-dimethylpropyl)phenyl)-1-ethyl-N-(((2RS,5SR)-5-(methylsulfonyl)tetrahydro-2H-pyran-2-yl)methyl)-1H-pyrazole-3-carboxamide] | 9.85 | 8.80 |  | inhibition at […] (full-length human RORγt; [4]): 99% |
| CCn1nc(C(=O)NC[C@H]2CC[C@H](S(C)(=O)=O)CC2)c(Cl)c1-c1ccc(C[C@@H](C)C(F)(F)F)cc1OC(F)F (single isomer, unassigned) [Example 135, 4-Chloro-5-(2-(difluoromethoxy)-4-((R*)-3,3,3-trifluoro-2-methylpropyl)phenyl)-1-ethyl-N-(((1r,4R)-4-(methylsulfonyl)cyclohexyl)methyl)-1H-pyrazole-3-carboxamide] | 9.34 | 7.96 |  | inhibition at […] (full-length human RORγt; [3]): 83% |
| CCn1nc(C(=O)NC[C@]2(O)CC[C@@H](S(C)(=O)=O)CC2)c(Cl)c1-c1ccc(CC(C)C)cc1OC [Example 73, 4-Chloro-1-ethyl-N-(((1s,4s)-1-hydroxy-4-(methylsulfonyl)cyclohexyl)methyl)-5-(4-isobutyl-2-methoxyphenyl)-1H-pyrazole-3-carboxamide] |  | 7.96 | 9.20 | inhibition at 2 µM (full-length human RORγt): 61% |
| CCn1nc(C(=O)NC[C@H]2CC[C@@H](S(C)(=O)=O)CN2)c(Cl)c1-c1ccc(CC(C)(C)C(F)(F)F)cc1OC(F)F (stereo in doubt) [Example 13, 4-Chloro-5-(2-(difluoromethoxy)-4-(3,3,3-trifluoro-2,2-dimethylpropyl)phenyl)-1-ethyl-N-(((2R*,5R*)-5-(methylsulfonyl)piperidin-2-yl)methyl)-1H-pyrazole-3-carboxamide] | 6.96 | 6.72 |  | inhibition at 3 µM (full-length human RORγt): 90% |
| COc1cc(CC(C)C(F)(F)F)ccc1-c1c(Cl)c(C(=O)NC[C@H]2CC[C@H](S(C)(=O)=O)CC2)nn1CCO (stereo partly drawn) [Example 200, 4-Chloro-1-(2-hydroxyethyl)-5-(2-methoxy-4-(3,3,3-trifluoro-2-methylpropyl)phenyl)-N-(((1r,4r)-4-(methylsulfonyl)cyclohexyl)methyl)-1H-pyrazole-3-carboxamide] |  | 7.11 | 7.89 | inhibition at 2 µM (full-length human RORγt): 96% |
| COc1cc(N[C@H](C)C(F)(F)F)ccc1-c1c(Cl)c(C(=O)NC[C@H]2CC[C@H](S(C)(=O)=O)CC2)nn1C(C)(C)C [Example 26, 1-(tert-Butyl)-4-chloro-5-(2-methoxy-4-(((R)-1,1,1-trifluoropropan-2-yl)amino)phenyl)-N-(((1r,4R)-4-(methylsulfonyl)cyclohexyl)methyl)-1H-pyrazole-3-carboxamide] |  | 7.54 | 8.41 | inhibition at 6 µM (full-length human RORγt): 108% |
| CCn1nc(C(=O)NC[C@H]2CC[C@H](S(C)(=O)=O)CC2)c(Cl)c1-c1ccc(CC(C)(C)C(F)(F)F)cc1C(F)(F)F [Example 162, 4-Chloro-1-ethyl-N-(((1r,4r)-4-(methylsulfonyl)cyclohexyl)methyl)-5-(4-(3,3,3-trifluoro-2,2-dimethylpropyl)-2-(trifluoromethyl)phenyl)-1H-pyrazole-3-carboxamide] |  | 8.23 | 9.32 | inhibition at […] (full-length human RORγt; [4]): 72% |
| CCOC(=O)[C@]1(CNC(=O)c2nn(CC)c(-c3ccc(N[C@H](C)C(F)(F)F)cc3OC)c2Cl)CC[C@H](S(C)(=O)=O)CC1 (relative stereo) [Example 94, Ethyl (1s*,4S*)-1-((4-chloro-1-ethyl-5-(2-methoxy-4-(((R)-1,1,1-trifluoropropan-2-yl)amino)phenyl)-1H-pyrazole-3-carboxamido)methyl)-4-(methylsulfonyl)cyclohexane-1-carboxylate] | 9.66 | 8.22 |  | inhibition at 6 µM (full-length human RORγt): 101% |
| CCn1nc(C(=O)NC[C@H]2CC[C@H](S(C)(=O)=O)CC2)c(Cl)c1-c1ccc(OCC(C)(F)F)cc1OC [Example 214, 4-Chloro-5-(4-(2,2-difluoropropoxy)-2-methoxyphenyl)-1-ethyl-N-(((1r,4r)-4-(methylsulfonyl)cyclohexyl)methyl)-1H-pyrazole-3-carboxamide] |  | 7.08 | 7.41 | inhibition at 2 µM (full-length human RORγt): 79% |

— patent US10975037B2 (priority 2018, dated 2021)
